Data reported in US20250059188A1, “ARYLSULPHONAMIDE COMPOUNDS” (Anaxis Pharma Pty Ltd, priority 2021, published 2025).

Experiments:
Settings in all cases: equilibrium dissociation constant
human RIPK3 = human RIPK3 (Homo sapiens (Human), UniProt Q9Y572); assay: KINOMEscan binding assay, human RIPK3
Protocol: (§1) Binding affinity of the test compounds for human MLKL (full length), mouse MLKL (full length), human RIPK1 and human RIPK3 was determined using the KINOMEscan™ technology developed by DiscoverX (USA; http://www.discoverx.com). The assay was conducted according to manufacturer instructions.
(§2) Kinase assays. For most assays, kinase-tagged T7 phage strains were grown in parallel in 24-well blocks in an E. coli host derived from the BL21 strain. E. coli were grown to log-phase and infected with T7 phage from a frozen stock (multiplicity of infection=0.4) and incubated with shaking at 32° C. until lysis (90-150 minutes). The lysates were centrifuged (6,000×g) and filtered (0.2 μm) to remove cell debris. The remaining kinases were produced in HEK-293 cells and subsequently tagged with DNA for qPCR detection. […] The liganded beads were blocked with excess biotin and washed with blocking buffer (SeaBlock (Pierce), 1% BSA, 0.05% Tween 20, 1 mM DTT) to remove unbound ligand and to reduce non-specific phage binding. […] All reactions were performed in polypropylene 384-well plates in a final volume of 20 μL. […] The kinase concentration in the eluates was measured by qPCR.
(§3) An 11-point 3-fold serial dilution of each test compound was prepared in 100% DMSO at 100× final test concentration and subsequently diluted to 1× in the assay (final DMSO concentration=1%). Most Kos were determined using a compound top concentration=30,000 nM.
(§4) KD for each test compound was calculated with a standard dose-response curve using the Hill equation (equation (1)): […]
(§5) The Hill Slope was set to −1.
(§6) Curves were fitted using a non-linear least square fit with the Levenberg-Marquardt algorithm.

human MLKL (full length) = human MLKL (full length) (Homo sapiens (Human), UniProt Q8NB16); assay: KINOMEscan binding assay, human MLKL (full length)
Protocol: as §1, §2, §3, §4, §5, §6

human RIPK1 = human RIPK1 (Homo sapiens (Human), UniProt Q13546); assay: KINOMEscan binding assay, human RIPK1
Protocol: as §1, §2, §3, §4, §5, §6

human RIPK1, sequence (Q13546 whole entry): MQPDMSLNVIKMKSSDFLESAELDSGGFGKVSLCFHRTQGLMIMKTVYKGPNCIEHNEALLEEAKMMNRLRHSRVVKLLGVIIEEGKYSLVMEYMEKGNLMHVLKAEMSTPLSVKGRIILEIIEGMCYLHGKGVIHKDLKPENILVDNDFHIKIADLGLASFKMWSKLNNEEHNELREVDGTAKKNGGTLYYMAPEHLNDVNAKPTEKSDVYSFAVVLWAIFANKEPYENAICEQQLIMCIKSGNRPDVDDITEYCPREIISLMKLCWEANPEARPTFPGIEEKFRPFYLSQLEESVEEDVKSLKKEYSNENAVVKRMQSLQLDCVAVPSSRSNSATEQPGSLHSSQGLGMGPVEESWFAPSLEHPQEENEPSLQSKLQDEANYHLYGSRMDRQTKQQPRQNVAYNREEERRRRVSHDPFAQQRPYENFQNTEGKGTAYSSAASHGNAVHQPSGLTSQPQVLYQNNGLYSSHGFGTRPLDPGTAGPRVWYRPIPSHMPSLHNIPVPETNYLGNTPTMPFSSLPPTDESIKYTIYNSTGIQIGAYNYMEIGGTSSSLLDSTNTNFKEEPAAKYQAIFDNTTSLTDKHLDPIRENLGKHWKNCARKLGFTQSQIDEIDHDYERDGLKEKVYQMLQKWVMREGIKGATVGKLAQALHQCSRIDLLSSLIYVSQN
human RIPK3, sequence (Q9Y572 whole entry): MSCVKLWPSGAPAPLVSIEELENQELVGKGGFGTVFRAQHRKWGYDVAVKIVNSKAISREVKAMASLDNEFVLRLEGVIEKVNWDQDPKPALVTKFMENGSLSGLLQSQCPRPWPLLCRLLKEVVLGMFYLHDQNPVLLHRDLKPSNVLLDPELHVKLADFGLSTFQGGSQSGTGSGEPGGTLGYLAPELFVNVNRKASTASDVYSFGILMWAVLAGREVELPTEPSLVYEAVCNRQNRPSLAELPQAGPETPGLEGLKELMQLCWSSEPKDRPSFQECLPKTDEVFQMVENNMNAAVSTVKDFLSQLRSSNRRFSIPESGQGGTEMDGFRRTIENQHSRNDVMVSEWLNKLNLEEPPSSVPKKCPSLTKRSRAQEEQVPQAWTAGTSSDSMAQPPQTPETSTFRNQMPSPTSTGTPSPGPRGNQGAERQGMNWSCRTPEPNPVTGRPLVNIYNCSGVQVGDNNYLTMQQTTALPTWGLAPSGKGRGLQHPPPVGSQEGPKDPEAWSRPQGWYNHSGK
human MLKL (full length), sequence (Q8NB16 whole entry): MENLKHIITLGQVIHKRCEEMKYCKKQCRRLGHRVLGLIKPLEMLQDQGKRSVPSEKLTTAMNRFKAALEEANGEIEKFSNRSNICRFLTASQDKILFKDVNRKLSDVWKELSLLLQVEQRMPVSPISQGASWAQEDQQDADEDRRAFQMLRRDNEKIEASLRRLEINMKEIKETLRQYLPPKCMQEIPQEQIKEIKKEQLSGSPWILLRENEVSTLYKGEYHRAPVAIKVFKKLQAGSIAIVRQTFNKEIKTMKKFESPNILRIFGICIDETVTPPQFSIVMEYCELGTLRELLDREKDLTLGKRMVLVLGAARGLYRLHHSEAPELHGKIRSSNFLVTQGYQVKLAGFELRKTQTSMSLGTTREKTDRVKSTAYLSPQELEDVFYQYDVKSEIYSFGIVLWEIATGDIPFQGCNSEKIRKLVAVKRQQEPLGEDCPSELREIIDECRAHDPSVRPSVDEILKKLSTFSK

Row | SMILES | Kd (human RIPK3) [µM] | Kd (human MLKL (full length)) [µM] | Kd (human RIPK1) [µM]
1 | C[C@H](Oc1cc(-c2nn(C)c3ccnc(N)c23)ccc1NS(=O)(=O)C(F)F)c1ccc(F)cc1 [Compound 17, N-(4-{4-amino-1-methyl-1Hpyrazolo[4,3-c]pyridin-3-yl}-2-[(1S)-1-(4-fluorophenyl)ethoxy]phenyl)-1,1-difluoromethanesulfonamide] | > 10 | < 0.001 | > 10
2 | CCS(=O)(=O)Nc1ccc(-c2cnn3ccnc(N)c23)cc1OCc1ccc(F)cc1 [Compound 64, N-(4-(4-Aminopyrazolo[1,5-a]pyrazin-3-yl)-2-((4-fluorophenyl)methoxy)phenyl)ethane-1-sulfonamide] | > 10 | 0.1 to 10 | > 10
3 | C[C@H](Oc1cc(-c2nn(C)c3c(C4=CCCNC4)cnc(N)c23)ccc1NS(=O)(=O)C(F)F)c1ccc(F)cc1 [Compound 54, (S)—N-(4-(4-amino-1-methyl-7-(1,2,5,6-tetrahydropyridin-3-yl)-1H-pyrazolo[4,3-c]pyridin-3-yl)-2-(1-(4-fluorophenyl)ethoxy)phenyl)-1,1-difluoromethanesulfonamide] | > 10 | 0.001 to 0.1 | > 10
4 | Nc1n[nH]c2nccc(-c3ccc(NS(=O)(=O)CC(F)(F)F)c(OCc4ccc(F)cc4)c3)c12 [Compound 67, N-(4-(3-Amino-1H-pyrazolo[3,4-b]pyridin-4-yl)-2-((4-fluorophenyl)methoxy)phenyl)-2,2,2-trifluoroethane-1-sulfonamide] | > 10 | < 0.001 | > 10
5 | CCS(=O)(=O)Nc1ccc(-c2nn(C)c3c(NC(C)=O)cnc(N)c23)cc1OCc1ccc(F)cc1 [Compound 2, N-(4-amino-3-(4-(ethylsulfonamido)-3-((4-fluorobenzyl)oxy)phenyl)-1-methyl-1H-pyrazolo[4,3-c]pyridin-7-yl)acetamide] | > 10 | 0.001 to 0.1 | > 10
6 | C[C@H](Oc1cc(-c2nn(C)c3c(Cc4ccccc4)cnc(N)c23)ccc1NS(=O)(=O)C(F)F)c1ccc(F)cc1 [Compound 34, (S)-N-(4-(4-amino-7-benzyl-1-methyl-1H-pyrazolo[4,3-c]pyridin-3-yl)-2-(1-(4-fluorophenyl)ethoxy)phenyl)-1,1-difluoromethanesulfonamide] | > 10 | 0.001 to 0.1 | > 10
7 | C[C@H](Oc1cc(-c2cnn3ccnc(N)c23)ccc1NS(=O)(=O)C(F)F)c1ccc(F)cc1 [Compound 22, (S)—N-(4-(4-aminopyrazolo[1,5-a]pyrazin-3-yl)-2-(1-(4-fluorophenyl)ethoxy)phenyl)-1,1-difluoromethanesulfonamide] | > 10 | < 0.001 | > 10
8 | Nc1n[nH]c2ccnc(-c3ccc(NS(=O)(=O)C(F)F)c(OCc4ccc(F)cc4)c3)c12 [Compound 68, N-(4-(3-amino-1H-pyrazolo[4,3-c]pyridin-4-yl)-2-((4-fluorophenyl)methoxy)phenyl)-1,1-difluoromethanesulfonamide] | > 10 | 0.1 to 10 | > 10
9 | CCS(=O)(=O)Nc1ccc(-c2coc3c(-c4cnn(CCO)c4)cnc(N)c23)cc1OCc1ccc(F)cc1 [Compound 4, N-(4-(4-amino-7-(1-(2-hydroxyethyl)-1H-pyrazol-4-yl)furo[3,2-c]pyridin-3-yl)-2-((4-fluorobenzyl)oxy)phenyl)ethanesulfonamide] | > 10 | 0.001 to 0.1 | > 10
10 | C[C@H](Oc1cc(-c2nn(C)c3c(-c4ccnc(N(C)C)c4)cnc(N)c23)ccc1NS(=O)(=O)C(F)F)c1ccc(F)cc1 [Compound 49, (S)-N-(4-(4-amino-7-(2-(dimethylamino)pyridin-4-yl)-1-methyl-1H-pyrazolo[4,3-c]pyridin-3-yl)-2-(1-(4-fluorophenyl)ethoxy)phenyl)-1,1-difluoromethanesulfonamide] | > 10 | 0.001 to 0.1 | > 10
11 | Nc1ncc(-c2cnn(CCO)c2)c2occ(-c3ccc(NS(=O)(=O)C(F)F)c(OCc4ccc(F)cc4)c3)c12 [Compound 6, N-(4-(4-amino-7-(1-(2-hydroxyethyl)-1H-pyrazol-4-yl)furo[3,2-c]pyridin-3-yl)-2-((4-fluorobenzyl)oxy)phenyl)-1,1-difluoromethanesulfonamide] | > 10 | < 0.001 | > 10
12 | C[C@H](Oc1cc(-c2nn(C)c3c(-c4cnn5c4CNCC5)cnc(N)c23)ccc1NS(=O)(=O)C(F)F)c1ccc(F)cc1 [Compound 90, (S)-N-(4-(4-amino-1-methyl-7-(4,5,6,7-tetrahydropyrazolo[1,5-a]pyrazin-3-yl)-1H-pyrazolo[4,3-c]pyridin-3-yl)-2-(1-(4-fluorophenyl)ethoxy)phenyl)-1,1-difluoromethanesulfonamide] | > 10 | 0.001 to 0.1 | > 10
13 | Cc1noc(C)c1-c1cnc(N)c2c(-c3ccc(NS(=O)(=O)C(F)F)c(O[C@@H](C)c4ccc(F)cc4)c3)nn(C)c12 [Compound 33, (S)-N-(4-(4-amino-7-(3,5-dimethylisoxazol-4-yl)-1-methyl-1H-pyrazolo[4,3-c]pyridin-3-yl)-2-(1-(4-fluorophenyl)ethoxy)phenyl)-1,1-difluoromethanesulfonamide] | > 10 | 0.001 to 0.1 | > 10

Second part, the compound after the results:

Row | Kd (human RIPK3) [µM] | Kd (human MLKL (full length)) [µM] | Kd (human RIPK1) [µM] | SMILES
14 | > 10 | 0.001 to 0.1 | > 10 | C[C@H](Oc1cc(-c2nn(C)c3c(-c4cnn(C5CCOCC5)c4)cnc(N)c23)ccc1NS(=O)(=O)C(F)F)c1ccccc1F [Compound 118, (S)-N-(4-(4-amino-1-methyl-7-(1-(tetrahydro-2H-pyran-4-yl)-1H-pyrazol-4-yl)-1H-pyrazolo[4,3-c]pyridin-3-yl)-2-(1-(2-fluorophenyl)ethoxy)phenyl)-1,1-difluoromethanesulfonamide]
15 | – | 0.001 to 0.1 | – | C[C@H](Oc1cc(-c2nn(C)c3c(-c4cnn(C5CCOCC5)c4)cnc(N)c23)ccc1NS(=O)(=O)Cc1ccccc1)c1ccc(F)cc1 [Compound 127, (S)-N-(4-(4-amino-1-methyl-7-(1-(tetrahydro-2H-pyran-4-yl)-1H-pyrazol-4-yl)-1H-pyrazolo[4,3-c]pyridin-3-yl)-2-(1-(4-fluorophenyl)ethoxy)phenyl)-1-phenylmethanesulfonamide]
16 | > 10 | < 0.001 | > 10 | Cn1nc(-c2ccc(NS(=O)(=O)C(F)F)c(OCc3ncco3)c2)c2c(N)ncc(-c3cnn(C4CCOCC4)c3)c21 [Compound 151, N-(4-(4-amino-1-methyl-7-(1-(tetrahydro-2H-pyran-4-yl)-1H-pyrazol-4-yl)-1H-pyrazolo[4,3-c]pyridin-3-yl)-2-(oxazol-2-ylmethoxy)phenyl)-1,1-difluoromethanesulfonamide]
17 | > 10 | 0.1 to 10 | > 10 | C[C@H](Oc1cc(-c2nn(C)c3c(-c4cnn(C5CCOCC5)c4)cnc(N)c23)ccc1NS(=O)(=O)N(C)C)c1ccc(F)cc1 [Compound 124]
18 | > 10 | 0.001 to 0.1 | > 10 | C[C@H](Oc1cc(-c2nn(C)c3c(-c4cnn(C5CCOCC5)c4)cnc(N)c23)ccc1NS(=O)(=O)Cc1ccccc1)c1ccc(F)cc1 [Compound 125, (S)-N-(4-(4-amino-1-methyl-7-(1-(tetrahydro-2H-pyran-4-yl)-1H-pyrazol-4-yl)-1H-pyrazolo[4,3-c]pyridin-3-yl)-2-(1-(4-fluorophenyl)ethoxy)phenyl)-1-phenylmethanesulfonamide]
19 | > 10 | < 0.001 | > 10 | Cn1nc(-c2ccc(NS(=O)(=O)C(F)F)c(OCc3cccc(Cl)c3)c2)c2c(N)ncc(-c3cnn(C4CCOCC4)c3)c21 [Compound 130, N-(4-(4-amino-1-methyl-7-(1-(tetrahydro-2H-pyran-4-yl)-1H-pyrazol-4-yl)-1H-pyrazolo[4,3-c]pyridin-3-yl)-2-((3-chlorobenzyl)oxy)phenyl)-1,1-difluoromethanesulfonamide]
20 | > 10 | 0.001 to 0.1 | > 10 | COC[C@@H](Oc1cc(-c2nn(C)c3c(-c4cnn(C5CCOCC5)c4)cnc(N)c23)ccc1NS(=O)(=O)C(F)F)c1ccc(F)cc1 [Compound 112, (S)—N-(4-(4-amino-1-methyl-7-(1-(tetrahydro-2H-pyran-4-yl)-1H-pyrazol-4-yl)-1H-pyrazolo[4,3-c]pyridin-3-yl)-2-(1-(4-fluorophenyl)-2-methoxyethoxy)phenyl)-1,1-difluoromethanesulfonamide]
21 | > 10 | 0.001 to 0.1 | > 10 | C[C@H](Oc1cc(-c2nn(C)c3c(-c4cnc(N5CCCC5)nc4)cnc(N)c23)ccc1NS(=O)(=O)C(F)F)c1ccc(F)cc1 [Compound 114, (S)-N-(4-(4-amino-1-methyl-7-(2-(pyrrolidin-1-yl)pyrimidin-5-yl)-1H-pyrazolo[4,3-c]pyridin-3-yl)-2-(1-(4-fluorophenyl)ethoxy)phenyl)-1,1-difluoromethanesulfonamide]
